In patent US4725683A, “Fluorophenoxyphenoxypropionates and derivatives thereof” (The Dow Chemical Company, priority 1985, dated 1988):

Assays:
Experiment in all cases: Preemergent activity
Assay type in all cases: in vivo
Conditions in all cases: 0.28 kgs/hectare, seeds
soybean = test system: soybean
Procedure: (§1) In a representative operation, 2-[4-(2-fluoro-4-trifluoromethylphenoxy)phenoxy]propionic acid methyl ester, to be utilized in a series of tests, is dissolved in acetone to one half of the final volume (twice the final concentration) to be used and the acetone solution in each case is admixed with an equal volume of water containing 0.1 percent by weight of Tween-20 surface active material (Tween-20 is a trademark of Atlas Chemical Company). The composition, generally in the nature of an emulsion, was employed to treat separate respective seed beds of sandy loam soil of good nutrient content wherein each seed bed contained separate groups of good viable seeds, each group being of one of a known plant species. The various beds were positioned side by side and exposed to substantially identical conditions of temperature and light. Each bed was maintained so as to prevent any interaction with the test compound in different seed beds. Each seed bed was treated with the composition as a spray employing conventional spraying equipment to deposit a predetermined amount of the compound uniformly throughout the surface of the bed. Another seed bed was treated only with the acetone-Tween-20 water mixture with no chemical added to serve as a control. After treatment, the seed beds were maintained for two weeks under greenhouse conditions conducive for good plant growth and watered as necessary. Control refers to the reduction in growth of the test species in the presence of the test chemical relative to the observed growth of the same species in the absence of the test chemical.
(§2) Substantially the same procedures described in Example C were repeated using as the active ingredients

rape = test system: rape
Procedure: as §1, §2

pigweed = test system: pigweed
Procedure: as §1, §2

sugarbeets = test system: sugarbeets
Procedure: as §1, §2

Measured: phytotoxic effect

COC(=O)C(C)Oc1ccc(Oc2ccc(C(F)(F)F)cc2F)cc1 (stereo not shown) [2-[4-(2-fluoro-4-trifluoromethylphenoxy)phenoxy]propionic acid methyl ester]
inactive: all assays above
